Earlier results on one substance are cited in patent US6225288A, “Gamma-ketoacid dipeptides as inhibitors of caspase-3” (Merk Frosst Canada & Co., priority 2000, dated 2001).

In one data set the target is T1, caspase-1 (Homo sapiens, UniProt P29466).
T1 sequence (P29466 120-297 limits assumed): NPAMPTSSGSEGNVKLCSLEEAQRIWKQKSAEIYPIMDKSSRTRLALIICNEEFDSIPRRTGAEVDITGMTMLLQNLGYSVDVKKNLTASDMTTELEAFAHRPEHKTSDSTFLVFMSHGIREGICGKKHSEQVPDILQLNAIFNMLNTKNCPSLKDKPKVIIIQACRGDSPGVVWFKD
T1 sequence (P29466 317-404 limits assumed): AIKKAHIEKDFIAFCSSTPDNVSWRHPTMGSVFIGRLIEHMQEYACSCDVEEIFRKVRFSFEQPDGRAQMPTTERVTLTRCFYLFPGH

The target in another data set is T2, caspase-3 (Homo sapiens, UniProt P42574).
T2 sequence (P42574 29-175 limits assumed): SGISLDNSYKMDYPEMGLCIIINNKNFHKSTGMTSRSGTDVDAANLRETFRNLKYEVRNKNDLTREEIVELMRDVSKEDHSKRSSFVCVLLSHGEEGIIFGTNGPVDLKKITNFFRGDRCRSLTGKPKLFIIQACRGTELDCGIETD
T2 sequence (P42574 176-277 limits assumed): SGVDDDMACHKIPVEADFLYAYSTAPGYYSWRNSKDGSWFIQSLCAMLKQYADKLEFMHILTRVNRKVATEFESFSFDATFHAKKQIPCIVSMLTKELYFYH

Broadly, the Ki is the dissociation constant of the complex between target and ligand, obtained from inhibition or displacement. For Ac-YVAD-CHO, the values for the Ki on caspase-1 and at caspase-3 were under 0.001 µM and 12 µM, respectively.
